Source: patent US6410555B1, “Tetrahydronaphthyridinyl-carboxamides having anti-convulsant activity” (SmithKline Beecham p.l.c., priority 1998, dated 2002)

System: maximal (tonic hindlimb extension) electroshock seizures in male rats
Assay: Maximal electroshock seizure (MEST) threshold test, rat model
Type: in vivo
Details: 2 mg/kg p.o. at 2 h
Method: The maximal electroshock seizure (MEST) threshold test in rodents is particularly sensitive for detecting potential anti convulsant properties ^1. In this model anticonvulsant agents elevate the threshold to electrically-induced seizures whilst proconvulsants lower the seizure threshold. […] The threshold for maximal (tonic hindlimb extension) electroshock seizures in male rats (Sprague Dawley, 80-150 g 6 weeks old) was determined by a Hugo Sachs Electronik stimulator which delivered a constant current (0.3 sec duration; from 1-30 mA in steps of […]). The procedure is similar to that outlined above for mouse and full details are as published by Upton et al,.^4 The percentage increase or decrease in CC50 for each group compared to the control is calculated. […]

Row | Compound | percentage increase in CC50 compared to the control [%]
1 | CCOc1ccc(C(=O)Nc2cnc3c(c2)CN(C)CC3(C)C)cc1Br.Cl [Example 5, N-(5,6,7,8-Tetrahydro-6,8,8-trimethyl[1,6]naphthyridin-3-yl)-3-bromo-4-ethoxybenzamide Hydrochloride] | 350
2 | COc1ccc(C(=O)Nc2cnc3c(c2)CN(C)CC3(C)C)cc1C(F)(F)F.Cl [Example 3, N-(5,6,7,8-Tetrahydro-6,8,8-trimethyl[1,6]naphthyridin-3-yl)-4-methoxy-3-trifluoromethylbenzamide Hydrochloride] | 314
